Experimental data published in patent US8975417B2, “Pyrazolopyrrolidine derivatives and their use in the treatment of disease” (Novartis AG, priority 2013, dated 2015).

Tests used:
His-Brd2(60-472) = His-Brd2(60-472) (Homo sapiens (Human), UniProt P25440); assay: TR-FRET in-vitro binding assay for BRD2; conditions: biochemical
Method in brief: (§1)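 Assay buffer HEPES pH 7.5/NaCl/Tween20/BSA; protein solution 45 nM, peptide solution 60 nM acetyl-H4 (AcK5,8,12,16). Incubated 30 °C for 35 min; Eu-anti-His6 and SA-APC detection, TR-FRET read.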

His-Brd3(20-477) = His-Brd3(20-477) (Homo sapiens (Human), UniProt Q15059); assay: TR-FRET in-vitro binding assay for BRD3; conditions: biochemical
Method in brief: as §1

MV-4-11 cells = assay: Cell growth inhibition assay (CellTiter-Glo), MV-4-11; type: cell-based; conditions: Homo sapiens, MV4-11, read-out: MV-4-11 TGI
Method in brief: (§2)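 CTG luminescence (cellular ATP) after compound treatment; values background- and day 0-corrected, vehicle (0.1% DMSO) = 100%, medium only = −100%. Dose range: 3-fold dilutions from 10 μM. IC50/TGI by 4-parameter fit.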

THP-1 cells = assay: Cell growth inhibition assay (CellTiter-Glo), THP-1; type: cell-based; conditions: Homo sapiens, read-out: THP-1 TGI
Method in brief: as §2

K-562 cells = assay: Cell growth inhibition assay (CellTiter-Glo), K-562; type: cell-based, human; conditions: Homo sapiens, K562, read-out: K-562 TGI
Method in brief: as §2

His-Brd3(20-477), sequence (Q15059 20-477): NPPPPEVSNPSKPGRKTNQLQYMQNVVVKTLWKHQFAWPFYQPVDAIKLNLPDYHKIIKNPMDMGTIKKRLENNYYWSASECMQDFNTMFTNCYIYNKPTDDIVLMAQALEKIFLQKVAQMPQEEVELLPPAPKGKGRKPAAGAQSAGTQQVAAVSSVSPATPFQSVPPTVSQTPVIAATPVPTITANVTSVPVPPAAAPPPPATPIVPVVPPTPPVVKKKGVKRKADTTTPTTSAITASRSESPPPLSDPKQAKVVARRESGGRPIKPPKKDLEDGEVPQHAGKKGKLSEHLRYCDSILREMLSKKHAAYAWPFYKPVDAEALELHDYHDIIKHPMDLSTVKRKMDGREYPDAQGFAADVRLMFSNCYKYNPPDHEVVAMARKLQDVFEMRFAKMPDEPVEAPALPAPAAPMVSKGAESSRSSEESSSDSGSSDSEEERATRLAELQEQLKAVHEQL
His-Brd2(60-472), sequence (P25440 60-472): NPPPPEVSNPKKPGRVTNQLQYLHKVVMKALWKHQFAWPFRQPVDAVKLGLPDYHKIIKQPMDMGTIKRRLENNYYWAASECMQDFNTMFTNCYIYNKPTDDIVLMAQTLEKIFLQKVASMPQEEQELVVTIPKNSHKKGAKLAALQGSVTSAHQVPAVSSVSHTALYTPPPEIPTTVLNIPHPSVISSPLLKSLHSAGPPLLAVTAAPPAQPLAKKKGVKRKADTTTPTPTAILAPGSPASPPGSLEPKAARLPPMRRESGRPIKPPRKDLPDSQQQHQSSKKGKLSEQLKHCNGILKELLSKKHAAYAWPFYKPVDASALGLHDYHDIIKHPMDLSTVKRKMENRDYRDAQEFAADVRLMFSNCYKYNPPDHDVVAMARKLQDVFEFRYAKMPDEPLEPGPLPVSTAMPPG

SMILES	IC50 (His-Brd2(60-472))	IC50 (His-Brd3(20-477))	IC (total growth inhibition) (MV-4-11 cells)	IC (total growth inhibition) (THP-1 cells)	IC (total growth inhibition) (K-562 cells)
Cc1nn(C2CC2)c2c1C(c1ccc(C(F)(F)F)cc1)N(c1cc(C)c(=O)n(C)c1)C2=O (centres unmarked) [Example 97, 1-cyclopropyl-5-(1,5-dimethyl-6-oxo-1,6-dihydropyridin-3-yl)-3-methyl-4-(4-(trifluoromethyl)phenyl)-4,5-dihydropyrrolo[3,4-c]pyrazol-6(1H)-one]	0.088 µM	0.12 µM	0.12 µM	0.274 µM	> 10 µM
Cc1cc(N2C(=O)c3nn(C(=O)N(C)C)c(C)c3[C@H]2c2ccc(Cl)cc2)cn2c(C)nnc12 [Example 150, (R)-4-(4-chlorophenyl)-5-(3,8-dimethyl-[1,2,4]triazolo[4,3-a]pyridin-6-yl)-N,N,3-trimethyl-6-oxo-5,6-dihydropyrrolo[3,4-c]pyrazole-2(4H)-carboxamide]	0.14 µM	0.12 µM	0.0863 µM	0.211 µM	> 10 µM
Cc1cc(N2C(=O)c3c(c(CO)nn3C3CC3)C2c2ccc(Cl)cc2)cn2c(C)nnc12 (centres unmarked) [Example 131, 4-(4-chlorophenyl)-1-cyclopropyl-5-(3,8-dimethyl-[1,2,4]triazolo[4,3-a]pyridin-6-yl)-3-(hydroxymethyl)-4,5-dihydropyrrolo[3,4-c]pyrazol-6(1H)-one]	0.046 µM	0.052 µM	0.0405 µM	0.119 µM	> 10 µM
Cc1nn(C2CCC2)c2c1C(c1ccc(Cl)cc1)N(c1cc(C)c(=O)n(C)c1)C2=O (centres unmarked) [Example 94, 4-(4-chlorophenyl)-1-cyclobutyl-5-(1,5-dimethyl-6-oxo-1,6-dihydropyridin-3-yl)-3-methyl-4,5-dihydropyrrolo[3,4-c]pyrazol-6(1H)-one]	0.025 µM	0.028 µM	0.0318 µM	0.0765 µM	> 10 µM
COc1ncc(-n2nc(C)c3c2C(=O)N(c2cc(C)c(=O)n(C)c2)[C@@H]3c2ccc(Cl)cc2)c(OC)n1 [Example 100, (R)-4-(4-chlorophenyl)-1-(2,4-dimethoxypyrimidin-5-yl)-5-(1,5-dimethyl-6-oxo-1,6-dihydropyridin-3-yl)-3-methyl-4,5-dihydropyrrolo[3,4-c]pyrazol-6(1H)-one]	0.028 µM	0.027 µM	0.0582 µM	0.153 µM	> 10 µM
Cc1cc(N2C(=O)c3nn(C)c(O)c3C2c2ccc(Cl)cc2)cn(C)c1=O (centres unmarked) [Example 73, 4-(4-chlorophenyl)-5-(1,5-dimethyl-6-oxo-1,6-dihydropyridin-3-yl)-3-hydroxy-2-methyl-4,5-dihydropyrrolo[3,4-c]pyrazol-6(2H)-one]	0.2 µM	0.2 µM	4.4 µM	> 10 µM	> 10 µM
CCc1nn(CCOCC(F)(F)F)c2c1C(c1ccc(Cl)cc1)N(c1cc(OC)c3nnc(C)n3c1)C2=O (centres unmarked) [Example 108, 4-(4-chlorophenyl)-3-ethyl-5-(8-methoxy-3-methyl-[1,2,4]triazolo[4,3-a]pyridin-6-yl)-1-(2-(2,2,2-trifluoroethoxy)ethyl)-4,5-dihydropyrrolo[3,4-c]pyrazol-6(1H)-one]	0.21 µM	0.28 µM	0.445 µM	0.832 µM	> 10 µM
Cc1nn(C2CC2)c2c1[C@@H](c1ccc(Cl)cc1)N(c1cc(C)c(=O)n(C)c1)C2=O [Example 49, (R)-4-(4-chlorophenyl)-1-cyclopropyl-5-(1,5-dimethyl-6-oxo-1,6-dihydropyridin-3-yl)-3-methyl-4,5-dihydropyrrolo[3,4-c]pyrazol-6(1H)-one]	0.015 µM	0.019 µM	0.0394 µM	0.0603 µM	> 10 µM
CCc1c2c(nn1CCO)C(=O)N(c1cc(C)c3onc(C)c3c1)C2c1ccc(Cl)cc1 (centres unmarked) [Example 80, 4-(4-chlorophenyl)-5-(3,7-dimethylbenzo[d]isoxazol-5-yl)-3-ethyl-2-(2-hydroxyethyl)-4,5-dihydropyrrolo[3,4-c]pyrazol-6(2H)-one]	0.059 µM	0.036 µM	0.472 µM	1.03 µM	> 10 µM
Cc1nn(C2CNC2)c2c1C(c1ccc(Cl)cc1)N(c1cc(C)c3nnc(C)n3c1)C2=O (centres unmarked) [Example 151, 1-(azetidin-3-yl)-4-(4-chlorophenyl)-5-(3,8-dimethyl-[1,2,4]triazolo[4,3-a]pyridin-6-yl)-3-methyl-4,5-dihydropyrrolo[3,4-c]pyrazol-6(1H)-one]	0.15 µM	0.16 µM	0.368 µM	1.33 µM	> 10 µM
Cc1nn(C2CN(C)C2)c2c1C(c1ccc(Cl)cc1)N(c1cc(C)c(=O)n(C)c1)C2=O (centres unmarked) [Example 140, 4-(4-chlorophenyl)-5-(1,5-dimethyl-6-oxo-1,6-dihydropyridin-3-yl)-3-methyl-1-(1-methylazetidin-3-yl)-4,5-dihydropyrrolo[3,4-c]pyrazol-6(1H)-one]	0.42 µM	0.44 µM	0.154 µM	0.925 µM	> 10 µM
Cc1nn(-c2ccnn2C)c2c1[C@H](c1ccc(Cl)cc1)N(c1cc(C)c(=O)n(C)c1)C2=O [Example 121, (S)-4-(4-chlorophenyl)-5-(1,5-dimethyl-6-oxo-1,6-dihydropyridin-3-yl)-3-methyl-1-(1-methyl-1H-pyrazol-5-yl)-4,5-dihydropyrrolo[3,4-c]pyrazol-6(1H)-one]	5.3 µM	5.4 µM	1.23 µM	5.03 µM	> 10 µM
Cc1nn(C(=O)N(C)C)c2c1C(c1ccc(Cl)cc1)N(c1cc(C)c(=O)n(C)c1)C2=O (centres unmarked) [Example 142, 4-(4-chlorophenyl)-5-(1,5-dimethyl-6-oxo-1,6-dihydropyridin-3-yl)-N,N,3-trimethyl-6-oxo-5,6-dihydropyrrolo[3,4-c]pyrazole-1(4H)-carboxamide]	0.18 µM	0.15 µM	0.121 µM	0.448 µM	> 10 µM
Cc1nn(-c2ccnn2C)c2c1C(c1ccc(Cl)cc1)N(c1cc(C)c3nnc(C)n3n1)C2=O (centres unmarked) [Example 114, 4-(4-chlorophenyl)-5-(3,8-dimethyl-[1,2,4]triazolo[4,3-b]pyridazin-6-yl)-3-methyl-1-(1-methyl-1H-pyrazol-5-yl)-4,5-dihydropyrrolo[3,4-c]pyrazol-6(1H)-one]	0.035 µM	0.037 µM	0.0443 µM	0.0765 µM	> 10 µM
Cc1nn(C2COC2)c2c1C(c1ccc(Cl)cc1)N(c1cc(C)c3nnc(C)n3c1)C2=O (centres unmarked) [Example 137, 4-(4-chlorophenyl)-5-(3,8-dimethyl-[1,2,4]triazolo[4,3-a]pyridin-6-yl)-3-methyl-1-(oxetan-3-yl)-4,5-dihydropyrrolo[3,4-c]pyrazol-6(1H)-one]	0.092 µM	0.1 µM	0.0421 µM	0.116 µM	> 10 µM
Cn1cc(N2C(=O)c3c(c(C(F)(F)F)nn3C3CC3)C2c2ccc(Cl)cc2)cc(Cl)c1=O (centres unmarked) [Example 44, 5-(5-chloro-1-methyl-6-oxo-1,6-dihydropyridin-3-yl)-4-(4-chlorophenyl)-1-cyclopropyl-3-(trifluoromethyl)-4,5-dihydropyrrolo[3,4-c]pyrazol-6(1H)-one]	0.17 µM	0.28 µM	0.329 µM	0.484 µM	> 10 µM
Cc1nn(C2CC2)c2c1C(c1ccc(Cl)cc1)N(c1cc(N(C)C(=O)OC(C)(C)C)c3nnc(C)n3n1)C2=O (centres unmarked) [Example 112, tert-butyl (6-(4-(4-chlorophenyl)-1-cyclopropyl-3-methyl-6-oxopyrrolo[3,4-c]pyrazol-5(1H,4H,6H)-yl)-3-methyl-[1,2,4]triazolo[4,3-b]pyridazin-8-yl)(methyl)carbamate]	> 37 µM	> 37 µM	1.21 µM	3.17 µM	> 10 µM
Cc1ncccc1-n1nc2c(c1C)C(c1ccc(Cl)cc1)N(c1cc(C)c(=O)n(C)c1)C2=O (centres unmarked) [Example 81, 4-(4-chlorophenyl)-5-(1,5-dimethyl-6-oxo-1,6-dihydropyridin-3-yl)-3-methyl-2-(2-methylpyridin-3-yl)-4,5-dihydropyrrolo[3,4-c]pyrazol-6(2H)-one]	0.12 µM	0.097 µM	0.13 µM	0.422 µM	> 10 µM
Cc1nn(-c2ccnn2C)c2c1[C@H](c1ccc(Cl)cc1)N(c1cc(C)c3nnc(C)n3c1)C2=O [Example 124, (S)-4-(4-chlorophenyl)-5-(3,8-dimethyl-[1,2,4]triazolo[4,3-a]pyridin-6-yl)-3-methyl-1-(1-methyl-1H-pyrazol-5-yl)-4,5-dihydropyrrolo[3,4-c]pyrazol-6(1H)-one]	29 µM	37 µM	0.73 µM	1.54 µM	> 10 µM
